In ChEMBL document CHEMBL6096736, “Development of a Highly Selective Ferroptosis Inducer Targeting GPX4 with 2-Ethynylthiazole-4-carboxamide as Electrophilic Warhead” (J Med Chem, 2025):
The source made the active and inactive calls. No cut-off for these calls is given here.

Experiments:
HT-1080 [1] = experiment: Cytotoxicity against human HT-1080 cells assessed as cell viability incubated for 24 hrs by CCK-8 assay; settings: HT-1080, 24 h
HT-1080 [2] = experiment: Induction of ferroptosis in human HT-1080 cells assessed as reduction in cell viability incubated for 24 hrs in presence of Fer-1 by CCK-8 assay; settings: HT-1080, 24 h
HT-1080 [3] = experiment: Induction of morphological changes in human HT-1080 cells assessed as appearance of round shaped mitochondria by TEM analysis; type: functional, cell-based
HT-1080 [4] = experiment: Induction of morphological changes in human HT-1080 cells assessed as […] of mitochondria cristas by TEM analysis; type: functional, cell-based
HT-1080 [5] = experiment: Induction of ferroptosis in human HT-1080 cells assessed as increase in cellular ROS level at 0.1 uM incubated for 3 hrs by DCFH-DA staining based flow cytometry analysis; type: functional, cell-based
HT-1080 [6] = experiment: Induction of ferroptosis in human HT-1080 cells assessed as increase in cellular LPO level at 0.1 uM incubated for 3 hrs by BIODPY-C11 probe based flow cytometry analysis; type: functional, cell-based
HT-1080 [7] = experiment: Induction of ferroptosis in human HT-1080 cells assessed as increase in cellular MDA level at 0.1 uM incubated for 6 hrs; type: functional, cell-based
HT-1080 [8] = experiment: Induction of ferroptosis in human HT-1080 cells assessed as increase in cellular MDA level at 0.1 uM incubated for 6 hrs in presence of Fer-1; type: functional, cell-based
HT-1080 [9] = experiment: Cytotoxicity against human HT-1080 cells assessed as cell survival incubated for 24 hrs by CCK-8 assay; settings: HT-1080, 24 h
HT-1080 [10] = experiment: Cytotoxicity against human HT-1080 cells assessed as cell survival incubated for 24 hrs in presence of DFO by CCK-8 assay; settings: HT-1080, 24 h
HepG2 = experiment: Cytotoxicity against human HepG2 cells
MCF7 = experiment: Cytotoxicity against human MCF7 cells
CAL-27 = experiment: Cytotoxicity against human CAL-27 cells
4T1 = experiment: Cytotoxicity against mouse 4T1 cells
[11] = Cytotoxicity against human LO2 cells; type: toxicity, cell-based, L02
HT-1080 [12] = experiment: Cytotoxicity against human HT-1080 cells in presence of Z-VAD-FMK
[13] = Half life in male Sprague-Dawley rat at 2 mg/kg, iv measured upto 36 hrs by LC-MS/MS analysis; type: ADME, organism-based; settings: in vivo
[14] = Half life in male Sprague-Dawley rat at 20 mg/kg, po measured upto 36 hrs by LC-MS/MS analysis; type: ADME, organism-based; settings: in vivo
[15] = Cmax in male Sprague-Dawley rat at 2 mg/kg, iv measured upto 36 hrs by LC-MS/MS analysis; type: ADME, organism-based; settings: in vivo
[16] = Cmax in male Sprague-Dawley rat at 20 mg/kg, po measured upto 36 hrs by LC-MS/MS analysis; type: ADME, organism-based; settings: in vivo
[17] = AUC (0 to t) in male Sprague-Dawley rat at 2 mg/kg, iv measured upto 36 hrs by LC-MS/MS analysis; type: ADME, organism-based; settings: in vivo
[18] = AUC (0 to t) in male Sprague-Dawley rat at 20 mg/kg, po measured upto 36 hrs by LC-MS/MS analysis; type: ADME, organism-based; settings: in vivo
[19] = Clearance in male Sprague-Dawley rat at 2 mg/kg, iv measured upto 36 hrs by LC-MS/MS analysis; type: ADME, organism-based; settings: in vivo
[20] = Clearance in male Sprague-Dawley rat at 20 mg/kg, po measured upto 36 hrs by LC-MS/MS analysis; type: ADME, organism-based; settings: in vivo
[21] = Oral bioavailability in male Sprague-Dawley rat at 20 mg/kg measured upto 36 hrs by LC-MS/MS analysis; type: ADME, organism-based; settings: in vivo
HT-1080 [22] = experiment: Antitumor activity against human HT-1080 cells xenografted in BALB/c mouse assessed as reduction in tumor weight at 15 to 30 mg/kg, ip administered for 6 days and measured after 2 weeks; type: functional, organism-based; settings: dose 15-30 mg/kg, time 20.0 day
HT-1080 [23] = experiment: Antitumor activity against human HT-1080 cells xenografted in BALB/c mouse assessed as tumor growth inhibition at 15 mg/kg, ip administered for 6 days and measured after 2 weeks; type: functional; settings: HT-1080, 480 h, time 20 day, read-out: TGI
HT-1080 [24] = experiment: Antitumor activity against human HT-1080 cells xenografted in BALB/c mouse assessed as tumor growth inhibition at 30 mg/kg, ip administered for 6 days and measured after 2 weeks; type: functional; settings: HT-1080, 480 h, time 20 day, read-out: TGI
[25] = Toxicity in BALB/c mouse implanted with human HT-1080 cells assessed as change in body weight at 15 to 30 mg/kg, ip administered for 6 days and measured after 2 weeks; type: organism-based; settings: in vivo, 480 h, dose 15-30 mg/kg, time 20 day
[26] = Acute toxicity in BALB/c mouse implanted with human HT-1080 cells assessed as change in ALP level at 15 to 30 mg/kg, ip administered for 7 days; type: organism-based; settings: in vivo, 168 h, dose 15-30 mg/kg, time 7 day
[27] = Acute toxicity in BALB/c mouse implanted with human HT-1080 cells assessed as change in ALT level at 15 to 30 mg/kg, ip administered for 7 days; type: organism-based; settings: in vivo, 168 h, dose 15-30 mg/kg, time 7 day
[28] = Acute toxicity in BALB/c mouse implanted with human HT-1080 cells assessed as change in AST level at 15 to 30 mg/kg, ip administered for 7 days; type: organism-based; settings: in vivo, 168 h, dose 15-30 mg/kg, time 7 day
[29] = Acute toxicity in BALB/c mouse implanted with human HT-1080 cells assessed as change in CREA level at 15 to 30 mg/kg, ip administered for 7 days; type: organism-based; settings: in vivo, 168 h, dose 15-30 mg/kg, time 7 day
[30] = Acute toxicity in BALB/c mouse implanted with human HT-1080 cells assessed as change in UREA level at 15 to 30 mg/kg, ip administered for 7 days; type: organism-based; settings: in vivo, 168 h, dose 15-30 mg/kg, time 7 day
[31] = Acute toxicity in BALB/c mouse implanted with human HT-1080 cells assessed as heart damage at 15 to 30 mg/kg, ip administered for 7 days by H and E staining based analysis; type: organism-based; settings: in vivo, 168 h, dose 15-30 mg/kg, time 7 day
[32] = Acute toxicity in BALB/c mouse implanted with human HT-1080 cells assessed as liver damage at 15 to 30 mg/kg, ip administered for 7 days by H and E staining based analysis; type: organism-based; settings: in vivo, 168 h, dose 15-30 mg/kg, time 7 day
[33] = Acute toxicity in BALB/c mouse implanted with human HT-1080 cells assessed as spleen damage at 15 to 30 mg/kg, ip administered for 7 days by H and E staining based analysis; type: organism-based; settings: in vivo, 168 h, dose 15-30 mg/kg, time 7 day
[34] = Acute toxicity in BALB/c mouse implanted with human HT-1080 cells assessed as lung damage at 15 to 30 mg/kg, ip administered for 7 days by H and E staining based analysis; type: organism-based; settings: in vivo, 168 h, dose 15-30 mg/kg, time 7 day
[35] = Acute toxicity in BALB/c mouse implanted with human HT-1080 cells assessed as kidney damage at 15 to 30 mg/kg, ip administered for 7 days by H and E staining based analysis; type: organism-based; settings: in vivo, 168 h, dose 15-30 mg/kg, time 7 day

Structure (SMILES): C#Cc1nc(C(=O)N(c2ccc(-c3cnco3)cc2)[C@@H](C(=O)NC(C)(C)C)c2csc3ccccc23)cs1
- IC50 (HT-1080 [1]): 3 nM
- IC50 (HT-1080 [2]): 7480 nM
- Activity (HT-1080 [3]): Active
- Activity (HT-1080 [4]): Active
- Activity (HT-1080 [5]): Active
- Activity (HT-1080 [6]): Active
- Activity (HT-1080 [7]): Active
- Activity (HT-1080 [8]): Weak_effect
- IC50 (HT-1080 [9]): 22 nM
- IC50 (HT-1080 [10]): 3950 nM
- IC50 (HepG2): 56 nM
- IC50 (MCF7): 451 nM
- IC50 (CAL-27): 2680 nM
- IC50 (4T1): 89 nM
- IC50 [11]: 5140 nM
- IC50 (HT-1080 [12]): 0.2 nM
- half-life [13]: 1.05 h
- half-life [14]: 2.37 h
- Cmax [15]: 271 ng/mL
- Cmax [16]: 20.8 ng/mL
- AUC(0-t) at 36 h [17]: 122 ng·h/mL
- AUC(0-t) at 36 h [18]: 79.4 ng·h/mL
- clearance [19]: 282 mL/min/kg
- CL/F [20]: 5670 mL/min/kg
- bioavailability [21]: 6.67%
- Activity (HT-1080 [22]): Active
- inhibition in vivo at 15 mg/kg (HT-1080 [23]): 36.5%
- inhibition in vivo at 30 mg/kg (HT-1080 [24]): 49.4%
- Activity [25]: Non-toxic
- Activity [26]: Non-toxic
- Activity [27]: Non-toxic
- Activity [28]: Non-toxic
- Activity [29]: Non-toxic
- Activity [30]: Non-toxic
- Activity [31]: Non-toxic
- Activity [32]: Non-toxic
- Activity [33]: Non-toxic
- Activity [34]: Non-toxic
- Activity [35]: Non-toxic
